Measurements taken from paper PMC3368886, “ATPase Cycle and DNA Unwinding Kinetics of RecG Helicase” (PLoS ONE, 2012).

Assays:
RecG⋅DNA(A40:B40) [1] = molecular target: T1, RecG⋅DNA(A40:B40) (Thermotoga maritima, UniProt Q9WY48); test: Pi release with excess ATP, global fit to ATPase cycle model; assay type: biochemical; conditions: 0.5 µM RecG, 2.5 µM DNA (A40:B40)
T1 construct: made in house
T1 sequence (Q9WY48 1-780): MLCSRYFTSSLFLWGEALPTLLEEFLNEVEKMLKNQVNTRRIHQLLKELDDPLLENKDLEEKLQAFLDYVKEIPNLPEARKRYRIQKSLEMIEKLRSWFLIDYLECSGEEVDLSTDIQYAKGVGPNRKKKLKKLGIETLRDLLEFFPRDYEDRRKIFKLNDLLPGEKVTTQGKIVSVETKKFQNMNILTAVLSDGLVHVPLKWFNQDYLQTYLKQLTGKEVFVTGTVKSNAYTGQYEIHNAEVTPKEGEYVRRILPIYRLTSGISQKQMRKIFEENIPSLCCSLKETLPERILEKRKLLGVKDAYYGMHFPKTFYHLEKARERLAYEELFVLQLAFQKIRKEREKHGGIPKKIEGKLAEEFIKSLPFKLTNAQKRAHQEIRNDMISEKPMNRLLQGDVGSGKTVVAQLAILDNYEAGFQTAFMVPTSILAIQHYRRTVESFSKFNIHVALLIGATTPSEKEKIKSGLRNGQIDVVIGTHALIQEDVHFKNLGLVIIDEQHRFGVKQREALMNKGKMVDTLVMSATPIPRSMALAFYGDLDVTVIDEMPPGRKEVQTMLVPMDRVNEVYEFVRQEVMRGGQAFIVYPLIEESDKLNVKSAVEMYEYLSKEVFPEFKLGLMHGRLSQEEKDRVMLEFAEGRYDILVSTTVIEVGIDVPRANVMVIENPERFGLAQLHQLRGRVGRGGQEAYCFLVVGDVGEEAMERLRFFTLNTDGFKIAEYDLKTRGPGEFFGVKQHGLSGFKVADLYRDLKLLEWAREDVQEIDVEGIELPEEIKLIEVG
Protocol: The rate of Pi release was measured after mixing RecG⋅DNA with excess ATP, using the phosphate biosensor, in the stopped-flow apparatus (Figure 6A). […] Both phases are dependent on ATP concentration. The lag decreased, while the rate of the linear phase increased with greater concentrations of ATP. The lag is due to the steps prior to Pi release, namely ATP binding and cleavage. […] Such a burst phase would result from the relatively fast Pi release of the initial cycle before the Pi release of subsequent cycles was limited by slow ADP release.
Figure 6 ATPase cycle measurements with unmodified nucleotides. (A) Phosphate measurements at different ATP concentrations. 0.5 µM RecG, premixed with 2.5 µM DNA (A40:B40), was then mixed in the stopped-flow apparatus with ATP at the micromolar concentrations shown, in the presence of 10 µM MDCC-PBP. (B) Best fit time courses of the Pi release, based upon a model of the ATPase cycle, as described in the text. Curves were obtained by glogal fitting the curves at different concentrations, using Global kinetic Explorer. Note that in comparison, the experimental time courses show a small transient of Pi at times <100 ms. This is likely to be due to free Pi and this behavior, overlaying a lag, has been observed previously in multi-turnover measurements. (C) ADP Release kinetics. 10 µM RecG⋅DNA (A40∶B40) was pre-bound with 10 µM ADP before mixing with an excess of mantADP (20 µM): these concentrations are final in the mixing chamber. The increase in fluorescence was fitted to single exponential giving the dissociation rate constant of 11.4 (±2.2) s^−1. Rate constants were independent of mantADP concentration in the range of 20–80 µM.
A scheme of the ATPase cycle (Figure 2) was used to simulate the data to assess the individual rate constants. […] The simulated traces (Figure 6B) were obtained from a global fit to the experimental data. This was done by allowing only the rate constants that have maximum influence on the curve shapes to vary. Cleavage and Pi release were assumed to be irreversible. For the fit, Pi release was fixed at 100 s^–1, ADP release at 12.5 s^–1, as the fitting was relatively insensitive to changes in these constants. […] The resulting best fit gave rate constants for ATP binding as 0.65 (±0.02) µM^−1s^−1, dissociation of ATP as 10.0 (±0.6) s^−1, cleavage as 7.1 (±0.1) s^−1. The fit gave a cleavage rate constant similar to the value of k cat from the steady-state analysis (Table 1a). The rate constant for ADP release may be only slightly larger than that of cleavage step.
Data were fitted to theoretical equations using the stopped-flow software or Grafit. Kinetic simulations were performed using Berkeley Madonna (Version 8.3, University of California at Berkeley) and using Global Kinetic Explorer (Kintek). […]

RecG [2] = molecular target: T2, RecG (Thermotoga maritima, UniProt Q9WY48); parameters: method as in PMID 16363810; conditions: much lower concentration of DNA; cited from earlier work
T2 construct: made in house
T2 sequence (Q9WY48 1-780): T1 sequence (Q9WY48 1-780)

RecG⋅DNA(A40:B40) [3] = molecular target: T1, RecG⋅DNA(A40:B40); test: Quench-flow measurement of cleavage step (mantADP formation, HPLC); assay type: biochemical
Protocol: Single turnover measurements of the cleavage step and Pi release were performed with excess RecG⋅DNA over mantATP using conditions of the mantATP fluorescence measurements, described above. Quench-flow measurements allowed the formation of nucleoside diphosphate to be monitored with high time resolution. MantATP was rapidly mixed with excess RecG⋅DNA, and the reaction mix was quenched in acid at particular time points. The mix was then analyzed by HPLC to quantify mantATP and mantADP, giving the time course of mantADP formation (Figure 4A). This time course had similar kinetics to the slow phase of the mant fluorescence trace (0.2 s^−1), supporting the idea that this phase is mantADP formation.
These were carried out using a HiTech RQF-63 apparatus using different length loops and flow rates to age reactions before quenching using 10% perchloric acid. Samples were analyzed for the ratio of mantATP to mantADP by HPLC, as described.

RecG [4] = molecular target: T2, RecG; test: Titrations of RecG into fluorescent nucleotides in the absence of DNA; assay type: binding
Protocol: The two phases of this fluorescence increase with excess RecG⋅DNA would therefore relate to formation of bound mantATP (1.5-fold intensity increase relative to free nucleotide) and bound mantADP (4.9-fold). This interpretation was supported by titrations of RecG into the fluorescent nucleotides in the absence of DNA.
Steady-state fluorescence was measured using a Cary Eclipse fluorimeter (Varian) with a xenon light source. Absorbance spectroscopy was performed using a Beckman DU640 spectrophotometer.

RecG [5] = molecular target: T2, RecG; test: Phosphate-water oxygen exchange during hydrolysis; assay type: biochemical; conditions: 20°C, Table 2 summary

Row | Compound | cleavage (global fit) (RecG⋅DNA(A40:B40) [1]) | dissociation of ATP (global fit) (RecG⋅DNA(A40:B40) [1]) | rate constant for ATP binding (global fit) (RecG⋅DNA(A40:B40) [1]) | K m previously reported (RecG [2]) [µM] | k cat previously reported (RecG [2]) [s⁻¹] | rate of mantADP formation (quench-flow time course) (RecG⋅DNA(A40:B40) [3]; 0.5 µM mantATP, 2.5 µM RecG, 5 µM DNA) [s⁻¹] | hydrolytic cleavage slower than ATP (RecG⋅DNA(A40:B40) [3]; mantATP vs ATP) [fold] | increase in fluorescence on titration with RecG (RecG [4]) [fold] | k −2 (reverse of cleavage) (RecG [5]) [s⁻¹]
1 | Nc1ncnc2c1ncn2[C@@H]1O[C@H](COP(=O)(O)OP(=O)(O)OP(=O)(O)O)[C@@H](O)[C@H]1O [ATP] | 7.1 (±0.1) s^−1 | 10.0 (±0.6) s^−1 | 0.65 (±0.02) µM^−1s^−1 | 42 | 5.2 |  |  |  | 
2 | CNc1ccccc1C(=O)O[C@H]1[C@@H](O)[C@H](n2cnc3c(N)ncnc32)O[C@@H]1COP(=O)(O)OP(=O)(O)OP(=O)(O)O [mantATP, 2′(3′)-O-(N-methylanthraniloyl)ATP] |  |  |  |  |  | 0.2 | ~10 | 1.3 | <0.01
